Laboratory results reported in patent US9622997B2, “Methods for treating insomnia” (Lynn Health Science Institute, Inc., priority 2012, dated 2017).

Legend:
[1] = test system: healthy subjects subjected to a transient insomnia protocol; assay: Next day residual effects (DSST, SCT, VAS) and adverse events after PSG night; assay type: in vivo, human
Method: Next day residual effects were assessed by a comparing pre- and post-PSG Digit Symbol Substitution Test (DSST; 90-s duration) and Symbol Copying Test (SCT; 90-s duration). Hangover effect of baclofen 20 mg was assessed by comparing a Visual Analog Scale (VAS) for sleepiness administered the morning after each PSG. DSST and SCT were administered prior to study medication provided 90 minutes before Lights Out. DSST, SCT, and VAS were conducted 30 minutes after Lights On in the order given. Subjects were contacted between 24-48 hours after each PSG to assess any side-effects or adverse events.
The primary outcome variables were WASO, TST, and SE. Secondary outcome variables were SOL, sTST, sSOL, and sNAS. Exploratory variables to assess residual effects were cognitive and visual analog test scores (DSST, SCT, and VAS). Objective PSG measures such as the percent of time in each sleep stage, subjective self-reports, and residual effects were analyzed using SPSS 11.0 (SPSS Inc., Chicago, Ill., USA). Paired samples t-tests were used to compare means between treatment groups for normally distributed dependent measures. Wilcoxon signed-rank tests were used to compare the medians between treatment groups for non-normally distributed dependent measures. Sample size determination was made based on previous findings in our laboratory from a study of the effect of baclofen in patients with nighttime reflux.

[2] = test system: individuals with complaints of nighttime heartburn or regurgitation; assay: Cross-over trial with esophageal pH monitoring combined with overnight PSG after reflux-provoking meal; assay type: in vivo, human
Text: Individuals aged 18-65 (inclusive) with complaints of nighttime heartburn or regurgitation at least twice per week and a Carlsson GERD score of at least 5 were invited to participate. […] Participants were also excluded if they took sedating medications on a regular basis (PRN use was allowed if they agreed to abstain from use on the nights in the sleep laboratory). Participants were recruited from a database of patients with heartburn complaints. These participants had previously expressed interest in participating in medical research studies at our facility. Advertising was not utilized in recruitment.
Esophageal pH monitoring was performed using an antimony pH catheter (Sandhill Scientific, Highlands Ranch, Colo., USA) placed in the distal esophagus. The catheter was inserted into the esophagus via the nares and positioned so that the pH electrode was 5 cm above the manometrically determined LES. Prior to insertion the pH electrode was calibrated against solutions of pH 4 and 7. The catheter was connected to an acid reflux monitor, which allowed continuous recordings of esophageal pH for a 24-hour period as well as simultaneous pH monitoring during PSG (ZepHr, Sandhill Scientific).
Data were analyzed using BioVIEW Analysis software (Sandhill Scientific). This software provides a report of upright, supine, and total acid contact time (ACT), which were used as outcome measures in the study.
Overnight polysomnography included monitoring of electroencephalography, electroocculography, submental electromyography, airflow (thermistor), electrocardiogram and SaO2. Distal and proximal pH was also recorded via the polysomnography system. […] “Lights Out” occurred at the patient's usual bedtime. Time in bed was standardized to 8 hours. For the purposes of this study, significant sleep apnea was defined as an apnea hypopnea index (AHI) of at least 10 events per hour of sleep. Individuals with an AHI of 10 or greater on the first sleep study were excluded from the study. Likewise, individuals with a periodic limb movement arousal index (PLMAI) of 10 or greater were excluded.
A reflux event was defined as a period of at least 30 consecutive seconds with pH readings below 4. A reflux event ended when the pH rose to 4 or greater for a period of at least 30 seconds. Reflux events were only counted if they occurred after PSG documented sleep onset had occurred. These analyses were done by hand in order to determine which events occurred during sleep and which occurred during wake. […]
The second and third visits were scheduled one to two weeks after the initial visit, and were separated by a washout period of approximately one week. […] The order of medication was determined by a computer-generated list of random sequences. […]

[3] = baclofen 20 mg vs placebo, next day residual effects, 30 minutes after Lights On

## NCC(CC(=O)O)c1ccc(Cl)cc1 (centres unmarked) [Baclofen, 4-amino-3-(4-chlorophenyl)-butanoic acid]
[1]; baclofen 20 mg vs placebo, morning after each PSG
  residual sleepiness testing, Visual Analog Scale (VAS): no significant differences between treatment conditions
[1]; [3]
  cognitive testing, Digit Symbol Substitution Test (DSST): no significant differences between treatment conditions
  cognitive testing, Symbol Copying Test (SCT): no significant differences between treatment conditions
[1]; baclofen 20 mg, contacted 24-48 hours after each PSG
  serious adverse events: No serious adverse events were reported
[2]; baclofen 40 mg
  adverse events: No adverse events were documented
[2]; baclofen 40 mg 90 minutes before bed, n=21, p<0.05
  reduction in number of distal reflux events occurring after PSG-determined sleep onset compared to placebo: 56%
[2]; baclofen 40 mg, FIG. 1C
  reflux events associated with wakefulness and with sleep, compared to placebo: reduced reflux events
[2]; baclofen 40 mg, not statistically significant
  decrease in recumbent ACT (acid contact time) versus placebo: approximately 50%
